“And” between values parts separate entries of the source, which are not always exact repeats. Equal entries are not always repeated.
Tested on: CB2
Test: CBD bioactivity test (monoclonal antibody test based on CB2 affinity)
Format: binding
Details: CBD samples isolated from ImmunAG
Protocol: All chemicals and solutions were obtained from Sigma-Aldrich (St. Louis, Mo.). All cell cultures were obtained from Creative Bioarray, Shirley, N.Y. CBD bioactivity was measured using practices described in Cushing et al., “Measuring the Bioactivity of Phytocannabinoid Cannabidiol from Cannabis Sources, and a Novel Non-Cannabis Source,” Journal of Medical Phyto.
CBD Samples and Bioactivity Testing. […] Following isolation, bioactivity was measured using procedures outlined in Cushing et al., “Measuring the Bioactivity of Phytocannabinoid Cannabidiol from Cannabis Sources, and a Novel Non-Cannabis Source,” Journal of Medical Phyto.
The bioactivity testing procedure used in this experiment, as described in Cushing et al., “Measuring the Bioactivity of Phytocannabinoid Cannabidiol from Cannabis Sources, and a Novel Non-Cannabis Source,” Journal of Medical Phyto. Research 10 (2018), which is hereby incorporated by reference in its entirety, consisted of a monoclonal antibody test whose validity was based on the CB2 affinity of CBD samples.

SMILES: C=C(C)C1CCC(C)=CC1c1c(O)cc(CCCCC)cc1O (stereo not drawn) [CBD, 2-(6-isopropenyl-3-methyl-2-cyclohexen-l-yl)-5-pentyl-1,3-benzenediol]
- Bioactivity: 0.80 and 0.90 and 0.95

— patent US20210022305A1, “A HUMULUS PLANT VARIANT AND EXTRACTS THEREOF” (BOMI LLC, priority 2018, published 2021)
